Patent US20160326098A1, “Pharmaceutically Active Compound for Use as Anti-inflammatory Agent” (Pax Forschung GmbH, priority 2013, published 2016)

What was measured:
Type in all cases: in vivo
[1] = system: High mobility group box protein 1 (HMGB-1); experiment: Plasma high mobility group protein B1, rats with gastric injury without inflammation; details: 1.11 mmol/kg, day 3, vs control group H, FIG. 22
Method: High mobility group box protein 1 (HMGB-1) measurements in plasma:
Blood samples were drawn into chilled polypropylene tubes containing EDTA (1 mg/ml) and were centrifuged at 1200 g for 10 min at 4° C. The plasma samples were then collected and stored at −70° C. until assay. Plasma concentration of HMGB-1 was measured by a commercially available HMGB-1 ELISA kit (Shino-Test Corporation, Kanagawa, Japan).
Further experiments regarding the effect of a compound of formula (I) and a pharmaceutical composition comprising a compound of formula (I), respectively, on gastric injury without inflammation were conducted on rats. 15 animals were randomly allocated into three groups. Group H (n=5) served as sham-operated controls. Samples of all animals were drawn on day 1 of the clinical tests. On day 2 the animals of group I (n=5) were force-fed acetylsalicylic acid (ASS) (1.11 mmol/kg body weight). Group K (n=5) was force-fed 1.11 mmol/kg body weight of the compound according to the invention. […] Fluorescence confocal endomicroscopy was performed to examine the microvasculature and morphologic changes of the mucosa of the distal colon, and full-thickness tissue samples and venous blood samples were taken to determine the biochemical changes in the colon and plasma. The effects were determined by way of measurement of body weight, blood gas analysation and biopsy. […]

nitrite/nitrate (NOx) = experiment: Nitrite/nitrate level in blood, rats with TNBS-induced colitis; details: 1.11 mmol/kg, vs groups L and M, FIG. 34
Method: Colonic inflammation was induced by intracolonic administration of TNBS (2,4,6-trinitrobenzenesulfonic acid) (40 mg/kg in 0.25 ml of 25% aqueous ethanol) through an 8-cm-long soft plastic catheter under transient diethylether anesthesia. In the sham-operated groups, only the vehicle for TNBS was administered. The animals were deprived of food, but not water, for 12 h before the enemas.
The levels of plasma nitrite/nitrate (NOx), stable end products of NO were measured by the Griess reaction. This assay depends on the reduction of nitrate to nitrite, which is then converted into a colored azo dye compound that is detected spectrophotometrically at 540 nm.
The above-described clinical studies were repeated with animals having colitis which was induced as described above. […] Two days after the enema the effects of the treatment were determined by measurement of body weight, blood gas analysis and biopsy. […] Surgery was performed to allow registration of the hemodynamic parameters at 1 h intervals for 6 h (cardiac output [CO] data were measured only at the end of the experiments). […] In addition, fluorescence confocal endomicroscopy was performed to examine the microvasculature and morphologic changes of the mucosa of the distal colon, and full-thickness tissue samples and venous blood samples were taken to determine the biochemical changes in the colon and plasma.

xanthine oxidase enzyme = experiment: Xanthine oxidase enzyme activity in tissue, mice with gastric injury without inflammation; details: gastric and duodenal tissue, 1.11 mmol/kg, vs control group A, FIGS. 6a/6b
Method: The XOR activity was determined in the ultrafiltered, concentrated supernatant by fluorometric kinetic assay based on the conversion of pterine to isoxanthopterine in the presence (total XOR) or absence (xanthine oxidase activity) of the electron acceptor methylene blue.
First experiments regarding the effect of the compound of formula (I) and a pharmaceutical composition comprising the compound of formula (I) (clear aqueous solution of compound of formula (I) at pH 4.8), respectively, on gastric injury without inflammation were conducted on mice. 48 animals were randomly allocated into three groups. Group A (n=16) served as sham-operated controls. Samples of all animals were drawn on day 1 of the clinical tests. On day 2 the animals of group B (n=16) were force-fed acetylsalicylic acid (ASS) (1.11 mmol/kg body weight). Group C (n=16) was force-fed 1.11 mmol/kg body weight of the compound according to the invention. Group A only received the respective solvent (25% ethanol in water). One day after the gavage, additional samples were drawn. Fluorescence confocal endomicroscopy was performed to examine the microvasculature and morphologic changes of the mucosa of the distal colon, […] The effects were determined by way of measurement of body weight, blood gas analysation and biopsy. […]

myeloperoxidase (MPO) = experiment: Tissue myeloperoxidase activity, rats with gastric injury without inflammation; details: gastric and colon tissue, one day after 1.11 mmol/kg, vs control group H, FIGS. 23a/23b
Method: Colon biopsies kept on ice were homogenized in phosphate buffer (pH 7.4) containing 50 mM Tris-HCl (Reanal, Budapest, Hungary), 0.1 mM EDTA, 0.5 mM dithiothreitol, 1 mM phenylmethylsulfonyl fluoride, 10 μg/ml soybean trypsin inhibitor, and 10 μg/ml leupeptin (Sigma Aldrich GmbH, Munich, Germany). The homogenate was centrifuged at 4° C. for 20 minutes at 24,000 g, and the supernatant was loaded into centrifugal tubes (Amicon Centricon-100; 100,000-molecular-weight cutoff ultrafilter, Millipore Corporation, Bedford, Mass.). The activity of myeloperoxidase (MPO) was measured on the pellet of the homogenate.
The activity of MPO as a marker of tissue leukocyte infiltration was measured on the pellet of the homogenate. Briefly, the pellet was resuspended in K3PO4 buffer (0.05 M; pH 6.0) containing 0.5% hexa-1,6-bis-decyltriethylammonium bromide. After three repeated freeze-thaw procedures, the material was centrifuged at 4° C. for 20 minutes at 24,000 g, and the supernatant was used for MPO determination. […] The reaction led to the hydrogen peroxide-dependent oxidation of tetramethylbenzidine, which could be detected spectrophotometrically at 450 nm (UV-1601 spetrophotometer; Shimadzu, Kyoto, Japan). Myeloperoxidase activities were measured at 37° C.; the reaction was stopped after 5 minutes by the addition of 0.2 ml of H2SO4 (2 M), and the resulting data were referred to the protein content. […]

colon inflammation = experiment: Macroscopic score of colon inflammation, rats with TNBS-induced colitis; details: 1.11 mmol/kg, Morris score 0-4, untreated colitis group class 3 to 4, FIG. 29
Method: Colonic inflammation was induced by intracolonic administration of TNBS (2,4,6-trinitrobenzenesulfonic acid) (40 mg/kg in 0.25 ml of 25% aqueous ethanol) through an 8-cm-long soft plastic catheter under transient diethylether anesthesia. In the sham-operated groups, only the vehicle for TNBS was administered. The animals were deprived of food, but not water, for 12 h before the enemas. […] The other animals only received the respective solvent again. Two days after the enema the effects of the treatment were determined by measurement of body weight, blood gas analysis and biopsy. The animals were anesthetized two days after colitis induction. Surgery was performed to allow registration of the hemodynamic parameters at 1 h intervals for 6 h (cardiac output [CO] data were measured only at the end of the experiments). Intravital videomicroscopy was performed at the end of the experiments to visualize the serosal microcirculation 3 cm distal from the cecum. In addition, fluorescence confocal endomicroscopy was performed to examine the microvasculature and morphologic changes of the mucosa of the distal colon, and full-thickness tissue samples and venous blood samples were taken to determine the biochemical changes in the colon and plasma. […]

Compound	concentration of the high mobility group protein B1 in the plasma [1]	nitrite/nitrate level in the blood (nitrite/nitrate (NOx))	activity of xanthine oxidase enzyme (xanthine oxidase enzyme)	myeloperoxidase (MPO) activity (myeloperoxidase (MPO))	macroscopic score of colon inflammation (colon inflammation)
CC(=O)Oc1ccccc1C(=O)O [ASS, acetylsalicylic acid, reference compound]	increased	increased nitrite/nitrate level	increased activity	increased	slightly less severe symptoms
CC(=O)Oc1ccccc1C(=O)NC(CO)(CO)CO [compound according to the invention]	comparable with the concentration in the plasma of the animals in the control group H	nitrite/nitrate levels comparable to those of healthy animals	no such increase	does not further enhance the inflammatory processes	only showed increased erythema
